Publication PMC5477230 (Nature chemical biology, 2016)
Entries after “also recorded” stand apart in the source; their conditions may differ. Like-named read-outs stand apart in the source and are kept apart here. * marks the point of attachment. Cbz = O=C(OCc1ccccc1)*; CH2F = FC*

Columns and labels:
control THP-1 cells = experiment: CellTiter-Glo cell viability, control THP-1; type: cell-based; details: read-out: IC50 cell viability (CellTiter-Glo)
[1] = system: DPP8/9 knockout THP-1 cells; experiment: CellTiter-Glo cell viability, DPP8/9 knockout THP-1; type: cell-based; details: read-out: IC50 cell viability (CellTiter-Glo); DPP8/9 KO1 THP-1, 48 h
[2] = system: CASP1 knockout THP-1 cells; experiment: CellTiter-Glo cell viability, CASP1 knockout THP-1; type: cell-based; details: CASP1 knockout THP-1, 48 h, compared to DMSO
HT-1080 cells = experiment: CellTiter-Glo cell viability, HT-1080; type: cell-based; details: HT-1080, 48 h
MCF7 cells = experiment: CellTiter-Glo cell viability, MCF7; type: cell-based; details: MCF7, 48 h
[3] = system: caspase-1 knockout RAW 264.7 cells; experiment: Cell viability, caspase-1 knockout RAW 264.7; type: cell-based, mouse; details: for cell killing: caspase-1 knockout RAW 264.7
GSDMD = GSDMD cleavage by immunoblotting; type: cell-based; details: THP-1 cells, 24 h
[4] = system: DPP9 knockout THP-1 cells; experiment: LDH cytotoxicity assay, DPP9 knockout THP-1; type: cell-based
[5] = system: DPP8/9 double knockout THP-1 cells; experiment: LDH cytotoxicity assay, DPP8/9 double knockout THP-1; type: cell-based
[6] = system: Caspase-1 knockout THP-1 cells; experiment: LDH cytotoxicity assay, caspase-1 knockout THP-1; type: cell-based
DPP4 = details: cited from earlier work
THP-1 macrophages [7] = details: for LDH release: wild-type THP-1 cells; for blockade of Val-boroPro-induced pyroptosis: THP-1 macrophages, 50 μM, 30 min pre-treatment, 6 h
DPP8 = details: read-out: IC50 DPP8; cited from earlier work
DPP9 = details: read-out: IC50 DPP9; cited from earlier work
DPP7 = details: cited from earlier work
[8] = system: U937 cells and monocyte-derived macrophages; details: 8 μM; cited from earlier work
J774 cells [9] = details: cited from earlier work
rats = details: cited from earlier work
RAW 264.7 cells = experiment: LDH cytotoxicity assay, RAW 264.7; details: for LDH release: RAW 264.7; for effect on cumulative Val-boroPro-induced LDH release: RAW 264.7, 24 hours; for blockade of Val-boroPro-induced pyroptosis: RAW 264.7 macrophages, 50 μM, 30 min pre-treatment, 6 h
SCPEP1 = SCPEP1 (Homo sapiens, UniProt Q9HB40); experiment: EnPlex serine hydrolase selectivity profiling; type: biochemical; details: 10 μM; EnPlex and competitive ABPP
SCPEP1, sequence (Q9HB40 27-452, species assumed): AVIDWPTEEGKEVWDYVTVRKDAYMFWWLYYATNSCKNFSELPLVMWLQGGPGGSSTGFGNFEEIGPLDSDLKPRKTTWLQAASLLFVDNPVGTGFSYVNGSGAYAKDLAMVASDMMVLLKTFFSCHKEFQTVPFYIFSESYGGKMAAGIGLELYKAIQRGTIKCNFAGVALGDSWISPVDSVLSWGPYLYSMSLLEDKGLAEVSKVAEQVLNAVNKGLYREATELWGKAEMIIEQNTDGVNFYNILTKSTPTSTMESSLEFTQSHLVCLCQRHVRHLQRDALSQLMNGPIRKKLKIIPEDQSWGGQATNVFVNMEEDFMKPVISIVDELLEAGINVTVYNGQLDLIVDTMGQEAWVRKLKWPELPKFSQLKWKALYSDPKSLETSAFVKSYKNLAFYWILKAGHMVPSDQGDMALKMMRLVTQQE

wild-type mice = experiment: Cytokine stimulation in wild-type mice; type: in vivo; details: oral, Val-boroPro 100 μg/mouse, sitagliptin 1000 μg/mouse
[10] = system: Casp1−/− knockout C57BL/6NJ mice; experiment: Cytokine stimulation in Casp1−/− knockout mice; type: in vivo; details: 100 μg/mouse, 6 h
ASC-knockout THP-1 cells = type: cell-based
[11] = system: GSDMD knockout THP-1 cells; experiment: LDH cytotoxicity assay, GSDMD knockout THP-1; type: cell-based
J774 cells [12] = experiment: LDH cytotoxicity assay, J774
U937 cells = experiment: LDH cytotoxicity assay, U937
HL-60 cells = experiment: LDH cytotoxicity assay, HL-60
[13] = system: primary mouse bone marrow derived macrophages (mBMDMs); experiment: LDH cytotoxicity assay, mBMDMs
[14] = system: primary human peripheral blood mononuclear cells (hPBMCs); experiment: LDH cytotoxicity assay, hPBMCs
THP-1 macrophages [15] = experiment: IL-1β expression by immunoblotting; details: 10 μM

Compound: 1G244
- IC50 (control THP-1 cells; control THP-1, 48 h): 2700 nM
- IC50 [1]: 21500 nM
- cell death (CellTiter-Glo) [2]: killed
- cell killing (CellTiter-Glo) (HT-1080 cells): kills
- cell killing (CellTiter-Glo) (MCF7 cells): kills
- cell killing [3]: kills
- caspase-1-independent cell death ([3]; mouse RAW 264.7 cells, 10 μM): small amounts of caspase-1-independent cell death
- GSDMD cleavage (GSDMD): significant cleavage of GSDMD
- additional LDH release / cytotoxicity ([4]; DPP9 knockout THP-1, Val-boroPro 2 μM, 1G244 10 μM, 24 h): induced additional LDH release
- additional LDH increase [5]: no additional LDH increase
- sensitivity of cells to compound (LDH) [6]: resistant
- inhibition of DPP4 (DPP4): does not inhibit
- LDH release (THP-1 macrophages [7]): induced similar LDH release
- IC50 (DPP8): 14 nM
- IC50 (DPP9): 53 nM
- inhibition of DPP7 (DPP7): does not inhibit
- form of cell death induced [8]: induced a form of cell death that appeared to be apoptosis
- cell death (J774 cells [9]): induces cell death
- toxic effects after injection (rats; 30 mg/kg): startle reflex, convulsions and cyanosis
- concentrations achieved in animals (rats): > 10 µM
- toxic effects after injection (rats; ≥60 mg/kg): immediate death
- LDH release (RAW 264.7 cells): induced similar LDH release

Compound: Cbz-Val-Ala-Asp-CH2F
- blockade of Val-boroPro-induced pyroptosis (THP-1 macrophages [7]): completely blocked
- effect on cumulative Val-boroPro-induced LDH release (RAW 264.7 cells): only partially reduced
- blockade of Val-boroPro-induced pyroptosis (RAW 264.7 cells): completely blocked

Compound: N#C[C@@H]1C[C@@H]2C[C@@H]2N1C(=O)[C@@H](N)C12CC3CC(CC(O)(C3)C1)C2 [saxagliptin]
- IC50 (control THP-1 cells; Homo sapiens, THP-1, 48 h): 2500 to 18700 nM

Compound: N#C[C@@H]1CCCN1C(=O)CNC12CC3CC(CC(O)(C3)C1)C2 [vildagliptin]
- IC50 (control THP-1 cells; Homo sapiens, THP-1, 48 h): 2500 to 18700 nM

Compound: Ac-YVAD-CMK
- effect on cumulative Val-boroPro-induced LDH release (THP-1 macrophages [7]; THP-1, over 24 hours): no impact
- blockade of Val-boroPro-induced pyroptosis (THP-1 macrophages [7]): completely blocked
- effect on cumulative Val-boroPro-induced LDH release (RAW 264.7 cells): no impact
- blockade of Val-boroPro-induced pyroptosis (RAW 264.7 cells): completely blocked

Compound: CC(C)[C@H](N)C(=O)N1CCC[C@H]1B(O)O [Val-boroPro]
- inhibition of SCPEP1 (previously unknown target) (SCPEP1): inhibited
- cell killing [3]: resistant
- GSDMD cleavage (GSDMD): significant cleavage of GSDMD
- serum CXCL1/KC induction (wild-type mice): dramatically induces
- serum G-CSF induction (wild-type mice): dramatically induces
- serum CXCL1/KC increase [10]: no increase
- serum G-CSF increase [10]: no increase
- additional LDH release / cytotoxicity [4]: induce additional cytotoxicity
- additional LDH increase [5]: no additional LDH increase
- sensitivity of cells to compound (LDH) [6]: resistant
- cytotoxic response (LDH) (ASC-knockout THP-1 cells): responded equivalently
- onset of induced cell death [11]: significantly delayed
- LDH release (THP-1 macrophages [7]): induced similar LDH release
- inhibition of DPP7 (DPP7; relative to DPP4, DPP8, DPP9): more weakly inhibit
- LDH release (J774 cells [12]): released LDH
- LDH release (U937 cells): do not release LDH
- LDH release (HL-60 cells): released LDH
- LDH release [13]: released LDH
- LDH release [14]: released LDH
- LDH release (RAW 264.7 cells): released LDH; also recorded: induced similar LDH release
- increase of intracellular pro-IL-1β levels (THP-1 macrophages [15]): ~ 2 fold
